US20080039362A1, “Combination drug therapy for reducing scar tissue formation” (Afmedica, Inc., priority 2006, published 2008)

What was measured:
Human platelets = test: Platelet adhesion and aggregation on surfaces; assay type: cell-based; conditions: 30 minutes exposure; FIG. 21
Procedure: Platelet aggregation, used as a marker of polymer hemocompatibility, was visualized using human platelets that were exposed to PEA and a fibrinogen-coated surface for 30 minutes.

[1] = tested on: Human coronary artery endothelial cells (EC)
Procedure: Human peripheral blood monocytes were isolated by density centrifugation and magnetic separation (Miltenyi). Human platelets were purchased from the San Diego Blood Bank. Human coronary artery endothelial cells and aortic smooth muscle cells were purchased from Cambrex. Tissue culture polystyrene plates (TCPS; Falcon) with or without fibronectin coating (1 mg/ml) were used as controls.
Human coronary artery endothelial cells (EC) and aortic smooth muscle cells (SMC) were incubated on the polymers for 72 hours.

In the case of fibrinogen, the “platelet adhesion and aggregation” value (Human platelets) is reported as “aggregated as expected”.
For poly(ester amide) [PEA], the toxic effects [1] was “no toxic effects”.
